Data from a melting point compilation (Tetko et al.; mined from patent text by program, amines drawn as free bases though some values may be those of a salt).

Compound | melting point [°C]
COc1ccc2c(c1)cc(Cc1cc3ccccc3n1S(=O)(=O)c1ccccc1)n2S(=O)(=O)c1ccccc1 | 98 to 100
CC1CC(c2c[nH]c(-c3ccc(F)cc3)c2-c2ccncc2)CCN1 (stereo unspecified) | 198 to 205
O=[N+]([O-])c1cc(C(F)(F)F)c(Cl)cc1NCP(=O)(O)O | 207
CCOC(=O)c1ccc2[nH]ccc2c1 | 94 to 95
O=P(c1ccccc1)(c1ccccc1)c1nc2ccccc2nc1P(=O)(c1ccccc1)c1ccccc1 | 258 to 272
CS(=O)(=O)c1ccc(-c2cnn(-c3cccc(F)c3)c(=O)c2-c2ccc(F)cc2)cc1 | 245 to 247
COc1ccc(-c2ccc3cc(C(=O)O)ccc3c2)cc1C12CC3CC(C)(CC(C)(C3)C1)C2 | 258 to 263
BrCc1ccc(C=Cc2ccccc2)cc1 | 125 to 127
CCCCCCCCCCCCCCCCCCNC(=O)OCC(CNS(=O)(=O)CCCCl)n1nnnc1C (stereo unspecified) | 74 to 77
CCc1oc2ccccc2c1C(=O)c1cc(-c2ccccc2)c(O)c(-c2ccccc2)c1 | 142 to 143
CCOC(=O)c1nc(SC)n2c1c(=O)n(C)c1cc(C(F)(F)F)ccc12 | 202 to 204
CCOC(=O)C=C(c1ccc(Cl)cc1)c1ccc(Cl)cc1 | 54 to 56
Cc1nc(C)nc(NC(=O)NS(=O)(=O)c2ccccc2Cl)n1 | 115 to 118
Nc1c(C#Cc2ccccc2)cnnc1C1CN2CCNC1CC2 (stereo unspecified) | 182 to 183
N[C@@H]1CN2C(=O)N(c3cc(Cl)nc(Cl)c3)C(=O)[C@@]2(Cc2ccc(OC(F)(F)F)cc2)C1 | 151
COc1cc2cc(C3=NNC(=O)CC3C)sc2cc1OC (stereo unspecified) | 204 to 206
Cc1cc(C)n(-c2nccc(NC3CCCCC3)n2)n1 | 144 to 147
CSc1ccnc(Oc2cc(C#N)cc(C#N)c2)n1 | 237
CCOC(=O)c1c[nH]c2c(F)c(C)c(F)cc2c1=O | 260 to 263
O=C(O)C1CSC(c2cccnc2)N1 (stereo unspecified) | 135 to 140

Compound | melting point [°C]
O=c1[nH]c2cc(F)ccc2c(=O)n1-c1ccccc1 | 304 to 306
CC[C@H]1COC(=O)N1c1nc(-c2ccc(Br)cc2)cs1 | 138 to 140
COC(=O)C(C)(C)c1ccc(C(=O)Nc2cn3cc(I)ccc3n2)cc1 | 234 to 235
N#CC(=Cc1cc(O)c(O)c(C#N)c1)C(=O)Nc1cccc(Cl)c1 | 236 to 240
CC12CC(=O)NN=C1c1ccc(Br)cc1C2 (stereo unspecified) | 242
O=C(Cc1ccc(-c2ccccc2)cc1)NCCc1ccc(OCc2ccccc2)c(OCc2ccccc2)c1 | 142 to 144
COC(=O)C(C)(C)c1cn2nc(Cl)c(C)cc2n1 | 98 to 99
CC(C)(C)C1Cc2cc([N+](=O)[O-])ccc2N1 (stereo unspecified) | 110 to 112
COC(=O)c1ccc(-c2cccc(CO)c2)cc1 | 88 to 89
Cc1nc(-c2ccc(OCC(C)C)c(C=O)c2)sc1C(=O)O | 213 to 217
Cn1c2ccc(-c3nnn[nH]3)cc2c(=O)c2cc(-c3nnn[nH]3)ccc21 | > 400
CCOc1c(F)cc2[nH]c(=O)c(=O)[nH]c2c1[N+](=O)[O-] | 293 to 295
CC(C)(C)c1nc(-c2nnc(NC(=N)N)s2)nc(C(C)(C)C)c1O | 277
N#Cc1ccc([C@H]2CC[C@H](C=O)CC2)cc1 | 57.1
c1ccc(Sc2ccc[nH]2)cc1 | 86 to 87
CCCC(=O)OCn1cc(F)c(=O)[nH]c1=O | 96 to 98
N#Cc1ncccc1C(=O)OCC(Cl)(Cl)Cl | 103
Cn1nnnc1SCCCCCCCCSc1nnnn1C | 52 to 54
CCOC(=O)C(=NO)c1c[nH]c2c(CC)cccc12 | 167 to 169
C[C@H]1CCCC(C)(C)[C@@H]1C(=O)c1ccc(C(F)(F)F)cc1 | 16 to 20

The next lines start with the values.

melting point [°C] | Compound
71 to 74 | CCCCCCCCCCCCCCOc1ccc(OCc2ccccc2)c(C(=O)N(CC(=O)O)CC(=O)O)c1
190 | COc1cc2ncnc(Nc3cccc(Br)c3)c2cc1OCCN1CC(=O)O[C@@H](C)C1
134 | CCOC(=O)c1ncn2c1CN=C(NCC(OC)OC)c1sccc1-2
112 | COC(=O)C1C(C)=NC(N2CCCCC2)=C(C(=O)OC(C)C)C1c1cccc([N+](=O)[O-])c1 (stereo unspecified)
163 to 164 | O=C(Nc1ccc2nc(CN3CCCCC3)ccc2c1)c1ccc(-c2ccccc2F)cc1
158 to 159 | Cc1c(CCNC(=S)Nc2nccs2)cccc1C(F)(F)F
118 to 120 | CCOC(=O)C1=C(CC)NCN(c2ccc(Cl)cc2)C1=O
153 to 155 | N#CNC(=N)NC1CCCc2ccccc21 (stereo unspecified)
198 to 203 | CCCCNc1ncc(C(=O)c2ccc(N)c([N+](=O)[O-])c2)s1
192 to 195 | COC(=O)c1ccc2c(c1)S(=O)(=O)N=CN2C1CC1
132 to 133 | Cc1ccc2c(c1)nnn2C(=O)N(c1ccccc1)c1ccccc1
> 250 | Cn1c(=O)oc2cc3c(cc21)OCC31C(=O)Nc2ccccc21 (stereo unspecified)
76 to 78 | CCN(C(=O)OC)c1c(C(=O)c2cnoc2C2CC2)ccc(Cl)c1Cl
169 to 170 | CCCN(CCC)CCCC1CCN(CCNC(=O)N2c3ccccc3C(=O)Nc3cccnc32)CC1
163 to 166 | O=C1c2cc(O)ccc2OCC1Cc1cccnc1 (stereo unspecified)
113 to 114 | CC(C)(C)OC(=O)N[C@H]1CCN(OCc2ccccc2)C1=O

melting point [°C] | Compound
224 to 225 | O=C(Nc1cccc(CN2C(=O)[C@H]3CCC[C@H]3N(C(=O)CN3C(=O)c4ccccc4C3=O)c3ccccc32)c1)OCc1ccccc1 (relative stereo)
111 to 115 | Cc1noc(NS(=O)(=O)c2ccccc2-c2ccc(-c3ncco3)cc2O)c1C
245 to 246 | CN(Cc1ccc(F)cc1)C(=O)c1cnc2c3c(ccc2c1)C(=O)C(C(=O)O)C=N3 (stereo unspecified)
82 | Cc1ccc(C=C2CCN(C(=O)c3nc4ccc(O)cc4[nH]3)CC2)cc1
221 to 222 | CC(=O)Nc1ccn2nc(-c3ccccc3)c(-c3ccc(=O)n(C(C)C)n3)c2c1
145 | O=C(NCc1cccc2nc(N[C@@H]3CCc4ccccc43)ccc12)c1ccc(F)cc1
200 | O=c1cccc(-c2ccccc2)[nH]1
153 to 169 | Cc1c2n(c3ccccc13)C(=O)C(C(O)c1ncn(C(c3ccccc3)(c3ccccc3)c3ccccc3)c1C)CC2 (stereo unspecified)
118 to 120 | CCN(CC)CCOc1ccc(NC(=O)C#Cc2cccnc2)cc1Cl
155 to 157 | COc1ccc(N2CCN(C3CCN(CC(O)COc4cccc5[nH]c(C)cc45)CC3)C2=O)cc1 (stereo unspecified)
140 to 143 | O=S1N=C(NCCCOc2cccc(CN3CCCCC3)c2)C(NCc2ccccn2)=N1 (stereo unspecified)
142 | COC(=O)C1Oc2ccc(Cl)cc2C(c2ccccc2)(C2CCCCC2)O1 (stereo unspecified)
68 to 69 | CCCCCCCCCCCCCCc1ccc(C(=O)O)[nH]1
168 | Cc1cccc(NC(=O)NCC(=O)N(CC(=O)NCC2CC2)c2ccccc2)c1
84 to 85 | CC(C)OCCNC(=O)c1cccc(-c2cccc3cc(Cc4cc(F)cc(Cl)c4)sc23)c1
